Each structure is given as a SMILES string. Some results are limits rather than exact numbers.

The EC50 is the concentration giving half of the maximal effect.

The experiment deals with T1, hTLR7 (Homo sapiens, UniProt Q9NYK1).
T1 construct: expressed in transfected cells; host or cells: HEK-Blue hTLR7 reporter cell line
T1 sequence (Q9NYK1 27-1049): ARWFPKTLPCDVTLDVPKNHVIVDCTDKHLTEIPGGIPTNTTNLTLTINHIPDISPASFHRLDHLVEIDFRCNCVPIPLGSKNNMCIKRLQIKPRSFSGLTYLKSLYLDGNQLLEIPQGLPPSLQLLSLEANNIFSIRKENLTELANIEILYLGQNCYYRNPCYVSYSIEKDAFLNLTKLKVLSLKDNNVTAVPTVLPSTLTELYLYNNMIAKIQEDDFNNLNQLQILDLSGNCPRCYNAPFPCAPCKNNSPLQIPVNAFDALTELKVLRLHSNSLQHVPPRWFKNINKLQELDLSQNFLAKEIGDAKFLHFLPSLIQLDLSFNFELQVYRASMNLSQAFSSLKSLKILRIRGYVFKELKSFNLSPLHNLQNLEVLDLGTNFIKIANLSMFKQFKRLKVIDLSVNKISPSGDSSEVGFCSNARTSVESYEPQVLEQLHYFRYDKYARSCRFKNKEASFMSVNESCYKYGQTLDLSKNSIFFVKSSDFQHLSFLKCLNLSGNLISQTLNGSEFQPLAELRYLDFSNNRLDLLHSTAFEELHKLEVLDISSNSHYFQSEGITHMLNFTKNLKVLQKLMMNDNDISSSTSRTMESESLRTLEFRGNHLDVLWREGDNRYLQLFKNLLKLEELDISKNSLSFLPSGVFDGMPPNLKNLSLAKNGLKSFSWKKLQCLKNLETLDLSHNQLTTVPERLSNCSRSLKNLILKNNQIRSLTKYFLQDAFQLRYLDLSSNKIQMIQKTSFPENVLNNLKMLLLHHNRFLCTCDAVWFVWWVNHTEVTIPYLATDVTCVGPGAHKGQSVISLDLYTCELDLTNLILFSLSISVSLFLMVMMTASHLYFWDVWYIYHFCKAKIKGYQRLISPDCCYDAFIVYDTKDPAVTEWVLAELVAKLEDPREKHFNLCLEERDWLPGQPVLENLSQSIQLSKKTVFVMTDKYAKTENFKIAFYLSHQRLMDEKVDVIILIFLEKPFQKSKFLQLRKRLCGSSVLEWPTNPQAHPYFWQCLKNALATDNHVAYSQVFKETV
As to the kind of experiment: HEK-Blue hTLR7 reporter assay (NF-kB-induced SEAP, Quanti-Blue). In kind it is cell-based. As to conditions: Table 10; read-out: TLR7 EC50. The protocol: HEK-Blue™ hTLR7 cells were incubated in HEK-Blue™ Detection medium and stimulated with increasing concentrations of TLR7 or TLR8 or TLR7/8 agonists. […] The EC50 was determined from dose-response curve using Prism Software.
In general terms: A reporter such as luciferase makes a cellular process visible.
Regarding `CCCCc1nc2c(N)nc3ccccc3c2n1CCCCNC(=O)c1ccc(N)c(OC)c1` [AXC-725, 4-amino-N-(4-(4-amino-2-butyl-1H-imidazo[4,5-c]quinolin-1-yl)butyl)-3-methoxybenzamide], the EC50 turned out to be 249 nM.

With `CCCCc1nc2c(N)nc3cccnc3c2n1CCCCNC(=O)c1cnccn1` [AXC-732, N-(4-(4-amino-2-butyl-1H-imidazo[4,5-c][1,5]naphthyridin-1-yl)butyl)pyrazine-2-carboxamide], the half-maximal effective concentration (EC50) worked out at 256 nM.

Turning to `CCCCc1nc2c(N)nc3cccnc3c2n1CCCCNC(=O)c1ccc(N)c(OC)c1` [AXC-736, 4-amino-N-(4-(4-amino-2-butyl-1H-imidazo[4,5-c][1,5]naphthyridin-1-yl)butyl)-3-methoxybenzamide], the EC50 was determined as 213 nM.

On to `CCc1nc2c(N)nc3ccccc3c2n1CCCCNC(=O)c1ccc(N(C)C)cc1` [AXC-738, N-(4-(4-amino-2-ethyl-1H-imidazo[4,5-c]quinolin-1-yl)butyl)-4-(dimethylamino)benzamide], for which the EC50 stood at 11.1 nM.

For the compound `CCc1nc2c(N)nc3ccccc3c2n1CCCCNC(=O)/C=C/c1ccc(N(C)C)cc1` [AXC-739, (E)-N-(4-(4-amino-2-ethyl-1H-imidazo[4,5-c]quinolin-1-yl)butyl)-3-(4-(dimethylamino)phenyl)acrylamide], the EC50 was found to be 28.2 nM.

For the compound `CCCCc1nc2c(N)nc3ccccc3c2n1CCCCNC(=O)c1ccc(N(C)C)cc1` [AXC-740, N-(4-(4-amino-2-butyl-1H-imidazo[4,5-c]quinolin-1-yl)butyl)-4-(dimethylamino)benzamide], the concentration for a half-maximal effect (EC50) came to 116 nM.

Consider `CCCCc1nc2c(N)nc3cccnc3c2n1CCCCNC(=O)c1ccc(N(C)C)cc1` [AXC-743, N-(4-(4-amino-2-butyl-1H-imidazo[4,5-c][1,5]naphthyridin-1-yl)butyl)-4-(dimethylamino)benzamide], for which the EC50 turned out to be 56.1 nM.

Consider `CCCCc1nc2c(N)nc3ccccc3c2n1CCCCNC(=O)c1ccc(N2CCCC2)cc1` [AXC-777, N-(4-(4-amino-2-butyl-1H-imidazo[4,5-c]quinolin-1-yl)butyl)-4-(pyrrolidin-1-yl)benzamide], for which the EC50 came to 910 nM.

In the case of `CCCCc1nc2c(N)nc3ccccc3c2n1CCCCNC(=O)c1ccc(N)c(F)c1` [AXC-778, 4-amino-N-(4-(4-amino-2-butyl-1H-imidazo[4,5-c]quinolin-1-yl)butyl)-3-fluorobenzamide], the EC50 is 83.3 nM.

With `CCCCc1nc2c(N)nc3ccccc3c2n1CCCCNC(=O)c1cc(F)c(N)c(F)c1` [AXC-779, 4-amino-N-(4-(4-amino-2-butyl-1H-imidazo[4,5-c]quinolin-1-yl)butyl)-3,5-difluorobenzamide], the concentration giving a half-maximal response (EC50) came to 242 nM.

As to `CCCCc1nc2c(N)nc3ccccc3c2n1CCCCNC(=O)c1cc(F)c(NC(=O)[C@H](C)NC(=O)CON)c(F)c1` [AXC-800, (S)—N-(4-(4-amino-2-butyl-1H-imidazo[4,5-c]quinolin-1-yl)butyl)-4-(2-(2-(aminooxy)acetamido)propanamido)-3,5-difluorobenzamide], the EC50 is over 5000 nM.

As for `CCCCc1nc2c(N)nc3ccccc3c2n1CCCCNC(=O)c1cc(F)c(NC(=O)[C@H](CCCNC(N)=O)NC(=O)[C@@H](NC(=O)CON)C(C)C)c(F)c1` [AXC-801, N-(4-(4-amino-2-butyl-1H-imidazo[4,5-c]quinolin-1-yl)butyl)-4-((S)-2-((S)-2-(2-(aminooxy)acetamido)-3-methylbutanamido)-5-ureidopentanamido)-3,5-difluorobenzamide], the concentration for a half-maximal effect (EC50) is over 5000 nM.

As to `CCCCc1nc2c(N)nc3ccccc3c2n1CCCCNC(=O)c1cc(F)c(NC(=O)[C@H](CCCNC(N)=O)NC(=O)[C@@H](NC(=O)CCOCCON)C(C)C)c(F)c1` [AXC-802, N-(4-(4-amino-2-butyl-1H-imidazo[4,5-c]quinolin-1-yl)butyl)-4-((S)-2-((S)-2-(3-(2-(aminooxy)ethoxy)propanamido)-3-methylbutanamido)-5-ureidopentanamido)-3,5-difluorobenzamide], the 50% effective concentration (EC50) was over 5000 nM.

Source of the values: US20230302150A1, “ANTIBODY-TLR AGONIST CONJUGATES, METHODS AND USES THEREOF” (Ambrx, Inc., priority 2020, published 2023).
